Results as given in patent publication US20090118194A1, “Measurement of melanocortin peptides and uses thereof” (Auckland UniServices Limited, priority 2002, published 2009).
Entries after “also recorded” stand apart in the source; their conditions may differ.

Assays:
neonatal rats = assay: Body and organ weights of neonatal rats after subcutaneous injection; format: in vivo, rat; conditions: s.c. 0.3 μg/g body weight/day; for body weight change (growth) over 14 days vs PBS: first 14 days of life
Protocol: Adult female Wistar rats were housed in plastic cages and kept on a 12-h dark/light cycle. Animals received tap water and rat pellets ad libitum and were mated with males of the same strain. Each litter of new-born Wistar rats was culled to 9 pups per mother.
PBS or freshly prepared peptide solutions made up freshly in PBS containing 0.1% BSA were injected subcutaneously once per day in a volume of 40 μl for 14 days. Animals were injected on day 14 and 1 h later they were euthanised using sodium pentobarbital.
Rats were weighed at birth and then every 2 days prior to injection of peptides. Body weights were recorded on day 14 before injection and again when they were euthanised. The following organs were dissected and weighed: brain, heart, kidney, liver, lung, spleen.
Liner relationships between organ weights and body weights was tested using regression analysis of the organ weights measured against final body weight on day 14. There were significant linear relationships between organ weights and body weights for the following tissues: brain, spleen, heart, kidney and liver. There was no significant regression between lung weight and body weight. For those organs where their weight was linearly correlated to body weight, treatment effects on organ weight changes were analysed using ANCOVA with body weight as the co-variate.
Differences in body weight were analysed using a General Linear Model with repeated measures. Significance was assumed at the P<0.05 level.

[1] = system: food deprived Wistar rats; assay: Food intake after i.c.v. injection of melanocortin peptides; format: in vivo, rat
Protocol: Adult male Wistar rats (50-60 days old, 230-260 g at the beginning of the experiment) were maintained in individual cages under controlled temperature (23° C.) and reverse lighting (1000-2200 lights off). Standard laboratory chow (NZ Stockfeed Ltd) and tap water were available ad libitum during the adaptation phase. During this time animals were handled daily to minimize the effects of stress on food intake during experiments. Body weight was measured daily before, and one week after cannulation. Any animal showing signs of illness, such as weight loss, poor grooming, or decreased activity, was removed from the study. All animal procedures undertaken were approved by the Animal Ethics Committee of the University of Auckland.
After 7 days of adaptation, animals were subject to cannula placement surgery under 3% halothane/O2 anaesthesia. A permanent lateral ventricle infusion cannula (6-mm 21 gauge) was placed on top of the dura at 7.5 mm anterior from stereotaxic zero, 1.5 mm to the right of the mid-sagittal line, and secured to the skull with dental cement. Animals were allowed at least 7 days to recover from surgery before injections.
Rats were fasted overnight before the day of experiment.
Under 3% halothane/O2 anaethesia rats were infused icv through a 12-mm 27-gauge needle, connected to 20-cm length tubing attached to a syringe. Infusions were performed in the early dark phase between 1000 and 1130 hr using motor driven infusion pumps at a rate of 1.0 μl/min over 10 min. Movement of a 0.2 ml air-space introduced between the 0.9% saline solution filling the PE10 tubing-syringe system and the test solution served as an indicator of a successful infusion. […]
Following infusion, the cannula was left in place for 1 min, removed, and the animal returned to its cage with fresh pre-weighed food and water. At 3 h post-injection, the pellets and collected food spillage in the cage, were weighed and this weight was subtracted from the initial weight to quantify the amount of food eaten over 3 h.
The significance of treatment effects was evaluated using one-way ANOVA (Systat10 package)

SYSMEHFRWGKPV [desacetyl-α-MSH, non-acetylated form of α-MSH, obtained from Bachem]
brain weight vs PBS (neonatal rats; 14 days): significantly decreased brain weight | kidney weight vs PBS (neonatal rats; 14 days): no significant effect on kidney weight | spleen weight vs PBS (neonatal rats; 14 days): significantly increased spleen weight | body weight change (growth) over 14 days vs PBS (neonatal rats): grew significantly slower | body weight change (growth) over 14 days vs PBS (neonatal rats; listed as Desacetyl-α-MSH): significantly slowed body weight change | body weight catch up compared to PBS treated rats (neonatal rats; from day 12): appeared to catch up on body weight from day 12 | effect on food intake over 3 h vs PBS ([1]; 10 μg i.c.v., first study): not significantly different from the PBS treated control group | effect on food intake over 3 h vs PBS ([1]; 10 μg i.c.v., first study, listed as Desacetyl-α-MSH): no significant effect on feeding | effect on food intake over 3 h vs PBS ([1]; 50 μg i.c.v., second study): significantly reduce food intake; also recorded: significantly decreased food intake
